# From US20260021296A1, “ION[…]” (KANEKA CORPORATION, priority 2023, published 2026)
# Assay: Evaluation of skin permeability of drug by iontophoresis in a vertical Franz cell
# Type: in vitro ADME, hairless rat (HWY/Slc)
# Description: The excised abdominal skin of a depilated male hairless rat (HWY/Slc, SPF, 5 weeks old) was punched into a 3.2 cm diameter circle and set in a vertical Franz cell. To the donor chamber of the Franz cell, 1.5 mL of a 0.5 wt % lanreotide acetate solution was added as a drug 31, and a zinc plate (0.5 cm×2 cm×0.5 mm) was immersed therein to form an anode 21. PBS was used as a receptor solution in the receptor chamber, and a silver/silver chloride rod (11 cm in length, 1 mm q in diameter) was inserted from the sampling port to form a cathode 22. The zinc plate and the silver/silver chloride rod were connected to the same power supply 10 and control unit 50 as those used in the skin irritability evaluation described above.
# Example 4: A pulse current with a frequency of […], a period of 100 ms, a duty ratio of 50%, a rectangular waveform, and a current density of 0.35 mA/cm^2 was applied.
# Comparative Example 6: Instead of a pulse current, a current with a substantially constant current value and a current density of 0.35 mA/cm^2 was applied.
# Comparative Example 7: No current was applied.
# In order to match the total time of current application (total amount of applied current), the current was applied for 6 hours in Example 4 and for 3 hours in Comparative Example 6. Example 4 and Comparative Examples 6 to 7 were all conducted with n=3.
# Three items were evaluated: the cumulative amount of drug permeated, the permeation rate, and the relationship between the cumulative permeation amount and the quantity of electricity.
# The receptor solution was sampled every hour, the amount of drug permeated through the skin was quantified by high-performance liquid chromatography (HPLC), and the above three items were evaluated with time. In Comparative Example 6, even after the end of the current application, the sampling was continued until 6 hours elapsed from the start of the test, as in Example 4 and Comparative Example 7. The HPLC measurement conditions are shown below.
smiles,measurement,setting,value
CC(C)[C@@H]1NC(=O)[C@H](CCCCN)NC(=O)[C@@H](Cc2c[nH]c3ccccc23)NC(=O)[C@H](Cc2ccc(O)cc2)NC(=O)[C@@H](NC(=O)[C@H](N)Cc2ccc3ccccc3c2)CSSC[C@@H](C(=O)N[C@H](C(N)=O)[C@@H](C)O)NC1=O [lanreotide acetate],time from start of test at which permeation of the drug through the skin was observed,"Comparative Example 6: substantially constant current 0.35 mA/cm^2, applied 3 hours, 0.5 wt % solution, n=3",about 2 hours
same,"drug skin permeability (rank among current conditions, FIGS. 8 and 9)",Comparative Example 7: no current applied,lowest
same,time from start of test until which permeation of the drug through the skin was not observed,"Comparative Example 7: no current applied, 0.5 wt % solution, n=3",≥ 4 h
same,"drug skin permeability (rank among current conditions, FIGS. 8 and 9)","Example 4: pulse current 5 Hz, duty ratio 50%, 0.35 mA/cm^2",highest
same,time from start of test at which permeation of the drug through the skin was observed,"Example 4: pulse current 5 Hz, duty ratio 50%, rectangular waveform, 0.35 mA/cm^2, applied 6 hours, 0.5 wt % solution, n=3",about 2 hours
same,cumulative permeation amount of Example 4 relative to Comparative Example 6 at the same quantity of electricity (final),"pulse current (Example 4) versus constant current (Comparative Example 6), 0.35 mA/cm^2, FIG. 10",≥ 5 times
